Assay results from the NIST ThermoML archive (doi:10.1021/acs.jced.6b00655).
Several values for one entry are separate records, joined by “and”; a condition that tells them apart may be missing. Identical values can stand only once. ± gives the expanded uncertainty stated by the source.

Details: 283.15 K; 100 kPa; Liquid; Vibrating tube method

| SMILES | mass density |
| --- | --- |
| CCCC[N+]1(C)CCCC1.O=S(=O)([O-])C(F)(F)F [1-butyl-1-methylpyrrolidinium trifluoromethanesulfonate] | 1263.28 ± 10 kg/m3 and 1263.17 ± 10 kg/m3 |
| CCCC[N+]1(C)CCCC1.N#CN=C=[N-] [1-butyl-1-methylpyrrolidinium dicyanamide] | 1021.84 ± 10 kg/m3 and 1022.97 ± 10 kg/m3 and 1022.94 ± 10 kg/m3 |
